Experimental data taken from publication PMC2593629 (Bioorganic & medicinal chemistry letters, 2008).
Where two headings read alike, the source gives them in different places.

Experiments:
mice = conditions: mouse
mouse brain MAGL = target: T1, mouse brain MAGL (Mus musculus, UniProt O35678); assay: MAGL activity in mouse brain membranes; format: biochemical; conditions: read-out: MAGL IC50
T1 sequence (O35678 1-303): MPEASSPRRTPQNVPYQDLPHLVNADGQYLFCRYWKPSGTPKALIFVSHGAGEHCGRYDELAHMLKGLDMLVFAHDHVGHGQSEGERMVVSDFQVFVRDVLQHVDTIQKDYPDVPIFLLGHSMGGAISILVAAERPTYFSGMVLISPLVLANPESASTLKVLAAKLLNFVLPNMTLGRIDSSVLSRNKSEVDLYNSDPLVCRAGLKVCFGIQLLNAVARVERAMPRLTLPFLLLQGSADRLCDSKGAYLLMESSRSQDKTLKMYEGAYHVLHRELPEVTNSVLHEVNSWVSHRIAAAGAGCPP

CB1 [1] = target: T2, CB1 (Mus musculus, UniProt P47746); assay: biochemical
[2] = tested on: CB1 -/- mouse brain membranes; format: biochemical
[3] = target: eCB1 (CB1 overexpressed in HEK293 cells) (Mus musculus, UniProt P47746); format: binding
CB1 [4] = target: T2, CB1; assay: biochemical; format: binding

T2 sequence (P47746 whole entry): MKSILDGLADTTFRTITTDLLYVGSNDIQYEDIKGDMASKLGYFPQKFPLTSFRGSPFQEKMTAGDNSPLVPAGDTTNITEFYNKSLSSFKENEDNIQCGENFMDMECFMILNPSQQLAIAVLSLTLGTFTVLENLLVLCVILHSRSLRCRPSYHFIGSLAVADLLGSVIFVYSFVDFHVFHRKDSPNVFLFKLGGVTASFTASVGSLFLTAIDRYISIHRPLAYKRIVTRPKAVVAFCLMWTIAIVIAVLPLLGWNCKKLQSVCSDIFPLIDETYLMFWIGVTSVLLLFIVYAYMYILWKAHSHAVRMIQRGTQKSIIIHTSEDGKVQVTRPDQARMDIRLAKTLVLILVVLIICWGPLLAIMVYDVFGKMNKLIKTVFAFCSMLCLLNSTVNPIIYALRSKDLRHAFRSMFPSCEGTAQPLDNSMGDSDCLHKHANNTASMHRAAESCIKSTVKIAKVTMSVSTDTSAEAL
Chain of eCB1 (CB1 overexpressed in HEK293 cells) (P47746 whole entry): as above

CCCCCCCCCCCCP(=O)(OCC)Oc1ccc(C#N)cc1 (centres unmarked) [OP 4]
In vivo effectiveness in modulating behavior and brain 2-AG and AA levels (mice): very effective in vivo in all respects | IC50 (mouse brain MAGL; substrate 2-AG): 70 nM | IC50 (mouse brain MAGL; substrate [14C]1-oleoylglycerol): 70 nM

CCCCC/C=C\C/C=C\C/C=C\C/C=C\CCCC(=O)OC(CO)CO [2-AG, 2-arachidonoylglycerol]
EC50 (CB1 [1]; EC50 for stimulation of GTPγS binding): 1000 nM | EC50 (CB1 [1]; EC50 of 2-AG for stimulation of GTPγS binding after preincubation with OP 1): 300 nM | Stimulation of GTPγS binding in CB1 -/- membranes [2]: significant

CCOP(=O)(OCC)Oc1nc(Cl)c(Cl)cc1Cl [OP 7, chlorpyrifos oxon]
Sensitivity of eCB1 [3H]CP55940 binding [3]: not sensitive

CCCCCCC(C)(C)c1ccc([C@@H]2C[C@H](O)CC[C@H]2CCCO)c(O)c1 [[^3H]CP55940]
Kd (CB1 [4]): 0.86 nM

CCCCCCCCCCCCP(=O)(OCC)Oc1nc(Cl)c(Cl)cc1Cl (centres unmarked) [OP 3]
In vivo effectiveness in modulating behavior and brain 2-AG and AA levels (mice): not effective in vivo

CCCCCCCCCCCCS(=O)(=O)F [OS 9]
In vivo effectiveness in modulating behavior and brain 2-AG and AA levels (mice): same in vivo effects as OP 1 and OP 4

CCCCCCCCS(=O)(=O)F [OS 10]
In vivo effectiveness in modulating behavior and brain 2-AG and AA levels (mice): same in vivo effects as OP 1 and OP 4
